Measured values: patent US20220323427A1, “SOMATOSTATIN RECEPTOR TYPE 5 AGONIST FOR THE TREATMENT OF HYPERINSULINISM” (Crinetics Pharmaceuticals, Inc., priority 2021, published 2022)

What was measured:
[1] = test system: glyburide-induced hyperinsulinemic hypoglycemia; experiment: Glyburide-induced hyperinsulinemic hypoglycemia model in rats; format: in vivo, Sprague Dawley rats; settings: 30 mg/kg oral, adult male rats; mean baseline 168 mg/dL
Description: Sulfonylurea drugs, such as glyburide, inhibit KATP channels and can be used in rat preclinical models to mimic the disease state of congenital HI patients with KATP channel mutations.
This model of glyburide-induced hyperinsulinemic hypoglycemia was used to assess the pharmacodynamic effects of Compound 1 after a single administration in male and female adult rats and male neonatal rats.
Glyburide was administered to raise insulin levels and induce hypoglycemia in adult male Sprague Dawley rats.
Two hours following glyburide administration, Compound 1 was given by oral gavage and blood glucose was monitored over 5 hours.

[2] = fasting conditions; cited from earlier work
human pancreatic islets = experiment: Glucagon secretion in perifused human islets; format: cell-based; settings: islets from a healthy donor; G3+Arg
Description: For glucagon secretion, glucose (Boston BioProducts #BM-675) solutions, G3, G16.7 and G3 plus 20 mM arginine (Sigma #A8094; G3+Arg) were prepared in PB [24 mM NaHCO3 (Fisher Scientific #S233-500), 120 mM NaCl (Spectrum Chemical #S0155), 4.8 mM KCl (Fisher Scientific #P217-500), 2.5 mM CaCl2 (Fisher Scientific #C614-500), 1.2 mM MgCl2 (Sigma #M8266), 10 mM HEPES (Gibco #15630-080) and 0.1% BSA (EMD Millipore #12-675-100GM)]. Various concentrations of Compound 1 and diazoxide (Sigma #D9035) were prepared in G16.7 or in G3+Arg. On the day of the assay, ten perifusion chambers (Biorep #Peri-chamber) were loaded with a bead suspension (Biorep #Peri-beads-20) followed by 300 IEQ and another layer of bead suspension. Chambers were filled with PB, placed in the perifusion equipment and equilibrated with G3 for 74 min (flow rate=230 μL/min) followed by the perifusion steps for glucagon secretion shown in Table 3. […] Glucagon concentration was quantified using the commercially-available Mercodia Glucagon ELISA (Mercodia #10-1271-01) kit. undiluted perfusate samples were added to the supplied pre-coated assay plates. […] The optical density of each well was determined at 450 nm in a Tecan M1000Pro (Tecan, Switzerland) multiplate reader. Glucagon concentrations were calculated by regression to the standard curve using GraphPad Prism (GraphPad, San Diego, Calif.).

[3] = cited from earlier work

| SMILES | Blood glucose level after glyburide [1] | half-life [2] | Inhibition of arginine-stimulated glucagon secretion (human pancreatic islets) | Patients treated and considered responsive who continue to have hypoglycemia ([3]; 2020 Congenital HI International Global Registry report) | Patients who experienced pulmonary hypertension ([3]; one study) | Side effect: fluid retention ([3]; patients) | Side effect: gastrointestinal side effects including feeding aversion ([3]; patients) | Side effect: severe hypertrichosis ([3]; patients) |
| --- | --- | --- | --- | --- | --- | --- | --- | --- |
| COc1ccc(Cl)cc1C(=O)NCCc1ccc(S(=O)(=O)NC(=O)NC2CCCCC2)cc1 [glyburide, reference compound] | 70 mg/dL | approximately 10 hours |  |  |  |  |  |  |
| CC1=NS(=O)(=O)c2cc(Cl)ccc2N1 [diazoxide] |  |  | up to 57% | 30% | 4.8% | approximately 30% | approximately 12% | approximately 52% |
